Source: ChEMBL document CHEMBL1136616, “Carbonic anhydrase inhibitors: SAR and X-ray crystallographic study for the interaction of sugar sulfamates/sulfamides with isozymes I, II and IV” (Bioorg Med Chem Lett, 2003)

Tests used:
Carbonic anhydrase 2 = Carbonic anhydrase 2 (Homo sapiens, UniProt P00918)
Description: Inhibitory activity against human cloned carbonic anhydrase II (hCA II)

Carbonic anhydrase 4 = molecular target: T1, Carbonic anhydrase 4 (Bos taurus, UniProt Q95323)
T1 sequence (Q95323 whole entry): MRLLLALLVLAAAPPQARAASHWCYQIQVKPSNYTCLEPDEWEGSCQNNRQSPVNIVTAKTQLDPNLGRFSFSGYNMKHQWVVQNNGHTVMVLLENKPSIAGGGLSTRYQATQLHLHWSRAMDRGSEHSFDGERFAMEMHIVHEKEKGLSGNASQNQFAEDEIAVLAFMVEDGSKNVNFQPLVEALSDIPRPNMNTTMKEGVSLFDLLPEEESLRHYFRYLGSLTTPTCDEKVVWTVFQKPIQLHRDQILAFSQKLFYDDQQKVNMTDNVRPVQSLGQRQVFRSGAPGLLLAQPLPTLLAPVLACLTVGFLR
Description: Inhibitory activity against carbonic anhydrase isolated from bovine lung microsome (bCA IV)

Carbonic anhydrase 1 = Carbonic anhydrase 1 (Homo sapiens, UniProt P00915)
Chain of Carbonic anhydrase 1 (P00915 whole entry): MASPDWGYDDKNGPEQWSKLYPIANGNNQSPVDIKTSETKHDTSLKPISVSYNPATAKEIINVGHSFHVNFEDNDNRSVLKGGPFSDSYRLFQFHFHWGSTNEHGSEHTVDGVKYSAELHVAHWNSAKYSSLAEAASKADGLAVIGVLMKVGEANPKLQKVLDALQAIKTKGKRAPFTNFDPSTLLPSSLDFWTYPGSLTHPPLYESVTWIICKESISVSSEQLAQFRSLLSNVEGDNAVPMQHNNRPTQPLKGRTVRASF
Description: Inhibitory activity against human cloned carbonic anhydrase I (hCA I)

Structure (SMILES): CC1(C)O[C@H]2[C@@H](O1)[C@@H](C(=O)NNS(N)(=O)=O)O[C@@H]1OC(C)(C)O[C@@H]12
- Ki (Carbonic anhydrase 2): 15 µM
- Ki (Carbonic anhydrase 4): 30 µM
- Ki (Carbonic anhydrase 1): > 100 µM

Structure (SMILES): CC1(C)OC[C@@H]2O[C@@]3(C(=O)NS(N)(=O)=O)OC(C)(C)O[C@H]3[C@@H]2O1
- Ki (Carbonic anhydrase 2): 0.068 µM
- Ki (Carbonic anhydrase 4): 0.425 µM
- Ki (Carbonic anhydrase 1): 0.75 µM

Structure (SMILES): CC1(C)O[C@@H]2[C@@H](CO[C@@]3(C(=O)NS(N)(=O)=O)OC(C)(C)O[C@@H]23)O1
- Ki (Carbonic anhydrase 2): > 100 µM
- Ki (Carbonic anhydrase 4): > 100 µM
- Ki (Carbonic anhydrase 1): > 100 µM

Structure (SMILES): CC1(C)OC[C@@H]2O[C@@]3(C(=O)NNS(N)(=O)=O)OC(C)(C)O[C@H]3[C@@H]2O1
- Ki (Carbonic anhydrase 2): 21 µM
- Ki (Carbonic anhydrase 4): 33 µM
- Ki (Carbonic anhydrase 1): 420 µM

Structure (SMILES): NS(=O)(=O)O [SULFAMATE]
- Ki (Carbonic anhydrase 1): 21 µM

Structure (SMILES): CC1(C)O[C@@H]2[C@@H](CO[C@@]3(C(=O)NNS(N)(=O)=O)OC(C)(C)O[C@@H]23)O1
- Ki (Carbonic anhydrase 2): > 100 µM
- Ki (Carbonic anhydrase 4): > 100 µM
- Ki (Carbonic anhydrase 1): > 100 µM

Structure (SMILES): CC1(C)O[C@@H]2O[C@@H](COS(N)(=O)=O)[C@H]3OC(C)(C)O[C@H]3[C@@H]2O1
- Ki (Carbonic anhydrase 2): 13 µM
- Ki (Carbonic anhydrase 4): 27 µM
- Ki (Carbonic anhydrase 1): 400 µM

Structure (SMILES): CC1(C)O[C@@H]2[C@@H](CO[C@@]3(COC(=O)NS(N)(=O)=O)OC(C)(C)O[C@@H]23)O1
- Ki (Carbonic anhydrase 2): 0.024 µM
- Ki (Carbonic anhydrase 4): 0.045 µM
- Ki (Carbonic anhydrase 1): 0.42 µM

Structure (SMILES): CC1(C)OC[C@@H]2O[C@@]3(COC(=O)NS(N)(=O)=O)OC(C)(C)O[C@H]3[C@@H]2O1
- Ki (Carbonic anhydrase 2): 0.071 µM
- Ki (Carbonic anhydrase 4): 0.13 µM
- Ki (Carbonic anhydrase 1): 1.2 µM

Structure (SMILES): CC1(C)O[C@@H]2O[C@@H](C(=O)NS(N)(=O)=O)[C@H]3OC(C)(C)O[C@H]3[C@@H]2O1
- Ki (Carbonic anhydrase 2): 25 µM
- Ki (Carbonic anhydrase 4): 46 µM
- Ki (Carbonic anhydrase 1): > 100 µM
